Assay results published in patent US20260071234A1, “METHODS AND COMPOSITIONS FOR HEMATOPOIETIC STEM CELL ENHANCEMENT” (THE REGENTS OF THE UNIVERSITY OF CALIFORNIA, priority 2022, published 2026).

Legend:
[1] = system: HLF+ HSC; settings: day 10 cultures; applicant's analysis of published dataset; cited from earlier work
[2] = system: CB HSPCs; test: FACS based endocytosis assay, internalized fluorescent dextran in CB HSPCs; type: cell-based, human; settings: MYCT1 KD CB HSPCs cultured 5 days; chlorpromazine 10 μM, MbCD 1 mM
Method: (§1) HSPC or endothelial cells transduced with control, MYCT1 KD, or MYCT1 OE lentiviral vectors were incubated with fluorescent dextran (pHrodo Red Dextran, ThermoFisher Scientific P10361) 40 μg/ml for 30 minutes at 37° C. After incubation, cells were immediately placed on ice, washed with ice-cold DPBS with 5% FBS and resuspended into single cell suspension for FACS analysis. 7AAD was included to discriminate dead cells.

[3] = system: E4EC; test: FACS based endocytosis assay, internalized fluorescent dextran in E4EC; type: cell-based, human; settings: MYCT1 KD E4EC, 10 μM chlorpromazine
Method: as §1

For `Cn1nnc(-c2ccc3c(c2)[nH]c2nc(Cc4ccccc4)nc(NC4CCC(N)CC4)c23)n1` (centres unmarked) [UM171], the “MYCT1 expression in HLF+ HSC” value [1] is listed as “minimal MYCT1 expression”.
With methyl-beta-cyclodextrin the “dextran internalization after pre-treatment with endocytosis inhibitor” value [2] was “not sufficient to restore hyperactive endocytosis”.
With `CN(C)CCCN1c2ccccc2Sc2ccc(Cl)cc21` [chlorpromazine] the “dextran internalization after pre-treatment with endocytosis inhibitor” value [2] was “not sufficient to restore hyperactive endocytosis” and the “internalized fluorescent dextran after pre-treatment with endocytosis inhibitor” value [3] was “dampened the increased endocytosis caused by MYCT1 loss”.
In the case of `CC(C)n1cnc2c(NCCc3ccc(O)cc3)nc(-c3csc4ccccc34)nc21` [SR1], the “MYCT1 expression in HLF+ HSC” value [1] is given as “minimal MYCT1 expression”.
